Legend:
[1] = target: T1, USP7 (Homo sapiens, UniProt Q93009, C315A); assay: Inhibition of USP7 by Fluorescence Intensity (FLINT) readings, Ubiquitin-Rhodamine-110 substrate; format: biochemical; conditions: 0.25 nM His-His-USP7 (aa208-560), 60 minutes at 30° C. preincubation; Ki determined from IC50 according to Cer et al.
T1 construct: 0.25 nM His-His-USP7 (aa208-560, |C315A|) was incubated with compound; His-His (N)
In short: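 His-tagged USP7 (aa208-560, C315A), 0.25 nM, preincubated with compound 60 min at 30 °C in 100 mM Bicine pH 8.0, 0.01% Triton X-100, 1 mM TCEP, 10% DMSO. Ubiquitin-Rhodamine-110 (50 nM or 4 μM) added; kinetic fluorescence (Ex 485/Em 535 nm) over 21 min; IC50 from 11-point curves, Ki derived from IC50.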

[2] = tested on: Z138 mantle cell lymphoma tumour cell lines; assay: In vitro cytotoxicity, MTT assay; format: cell-based; conditions: Z138 cells, exposed to the test compounds for 96 hours
In short: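 Z138 cells exposed to compounds for 96 hours, then MTT added for 4 hours. Formazan absorbance at 540 nm serves as the measure of viable cell number.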

T1 sequence (Q93009 208-560 C315A): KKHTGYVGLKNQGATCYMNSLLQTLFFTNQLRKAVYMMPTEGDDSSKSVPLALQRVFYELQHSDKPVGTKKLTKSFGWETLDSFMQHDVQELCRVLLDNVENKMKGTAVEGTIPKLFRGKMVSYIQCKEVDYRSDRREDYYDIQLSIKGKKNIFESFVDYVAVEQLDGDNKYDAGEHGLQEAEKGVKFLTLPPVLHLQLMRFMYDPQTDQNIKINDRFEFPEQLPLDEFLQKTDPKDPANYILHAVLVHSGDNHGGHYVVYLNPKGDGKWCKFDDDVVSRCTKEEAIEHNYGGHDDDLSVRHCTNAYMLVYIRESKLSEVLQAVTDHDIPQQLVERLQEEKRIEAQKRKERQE

SMILES | Ki [1] | IC50 ([2]; Homo sapiens, Z-138) | IC50 [2]
Nc1c(Oc2ccc(F)cc2)ncn(CC2(O)CCN(C(=O)[C@@H]3CCN(S(=O)(=O)c4ccc(Br)s4)C[C@H]3c3ccccc3)CC2)c1=O [Example 59] | 35.8 nM | 41.1 nM | –
Cc1nc(C2CCC2)sc1C(=O)N1CC[C@@H](C(=O)N2CCC(O)(Cn3cnc(Oc4ccc(F)cc4)c(N)c3=O)CC2)[C@H](c2ccccc2)C1 [Example 165, 5-amino-3-[[1-[(3R,4R)-1-(2-cyclobutyl-4-methyl-thiazole-5-carbonyl)-3-phenyl-piperidine-4-carbonyl]-4-hydroxy-4-piperidyl]methyl]-6-(4-fluorophenoxy)pyrimidin-4-one] | 9.33 nM | 2.74 nM | –
Cc1nccnc1CN1CC[C@@H](C(=O)N2CC[C@](O)(Cn3cnc(Oc4ccc(F)cc4)c(N)c3=O)C(F)(F)C2)[C@H](c2ccccc2)C1 [Example 211, 5-amino-3-[[(4S)-3,3-difluoro-4-hydroxy-1-[(3R,4R)-1-[(3-methylpyrazin-2-yl)methyl]-3-phenyl-piperidine-4-carbonyl]-4-piperidyl]methyl]-4(4-fluorophenoxy)pyrimidin-4-one] | 27.7 nM | 24.9 nM | –
Cc1nc(-c2ccc(C(F)(F)F)nc2)sc1C(=O)N1CC[C@@H](C(=O)N2CCC(O)(Cn3cnc(Oc4ccc(F)cc4)c(N)c3=O)CC2)[C@H](c2ccccc2)C1 [Example 42, 5-amino-6-(4-fluorophenoxy)-3-({4-hydroxy-1-{(3R,4R)-1-{4-methyl-2-[6-(trifluromethyl)pyridin-3-yl]-1,3-thiazole-5carbonyl)-3-phenylpiperidine-4-carbonyl]piperidin-4-yl}methyl)pyrimidin-4(3H)-one] | 4.1 nM | – | 3.66 nM
Cc1ccc(-c2nc(C)c(C(=O)N3CC[C@@H](C(=O)N4CCC(O)(Cn5cnc(Oc6cccnc6)c(N)c5=O)CC4)[C@H](c4ccccc4)C3)s2)cn1 [Example 169] | 3.47 nM | 16.6 nM | –
Nc1c(Oc2ccc(F)cc2)ncn(CC2(O)CCN(C(=O)[C@@H]3CCN(C(=O)c4cncc(-c5ccccc5)c4)C[C@H]3c3ccccc3)CC2)c1=O [Example 35, 5-amino-6-(4-fluorophenoxy)-3-({4-hydroxy-1-[(3R,4R)-3-phenyl-1-(5-phenylpyridine-3-carbonyl)piperidine-4-carbonyl]piperidin-4-yl}methyl)pyrimidin-4(3H)-one] | 11.3 nM | 5 nM | –
Nc1c(Oc2cccc(C(F)(F)F)c2)ncn(CC2(O)CCN(C(=O)[C@@H]3CCN(C(=O)c4sc(-c5ccc(C(F)(F)F)nc5)cc4F)C[C@H]3c3ccccc3)CC2)c1=O [Example 124, 5-amino-3-[[1-[(3R,4R)-1-[3-fluoro-5-[16-(trifluoromethyl)-3-pyridyl]thiophene-2-carbonyl]-3-phenyl-piperidine-4-carbonyl]-4-hydroxy-4-piperidyl]methyl]-6-[3-(trifluoromethyl)phenoxy]pyrimidin-4-one] | 12 nM | 31.5 nM | –
COc1cc(Oc2ncn(C[C@@]3(O)CCN(C(=O)[C@@H]4CCN(Cc5ccnc(C)n5)C[C@H]4c4ccccc4)CC3(F)F)c(=O)c2N)ccc1Cl [Example 182] | 40.4 nM | 9.95 nM | –
CCOC(=O)C(c1ccccc1)N1CC[C@@H](C(=O)N2CCC(O)(Cn3cnc(Oc4ccc(F)cc4)c(N)c3=O)CC2)[C@H](c2ccccc2)C1 (some centres unmarked) [Example 70] | 63 nM | 34 nM | –
Cc1ccc(-c2cc(F)c(C(=O)N3CC[C@@H](C(=O)N4CCC(O)(Cn5cnc(Oc6ccc(F)cc6)c(N)c5=O)CC4)[C@H](c4ccccc4)C3)s2)cn1 [Example 40] | 4.19 nM | 1.7 nM | –
Cc1ccc(C2(N3CC[C@@H](C(=O)N4CCC(O)(Cn5cnc(Oc6ccc(F)cc6)c(N)c5=O)CC4)[C@H](c4ccccc4)C3)COC2)cc1 [Example 155] | 97 nM | – | 588 nM
Nc1c(Oc2ccc(F)cc2)ncn(CC2(O)CCN(C(=O)[C@@H]3CCN(C(=O)Nc4ccccc4C(F)(F)F)C[C@H]3c3ccccc3)CC2)c1=O [Example 128, (3R,4R)-4-[4-[[5-amino-4-(4-fluorophenoxy)-6-oxo-pyrimidin-1-yl]methyl]-4-hydroxy-piperidine-1-carbonyl]-3-phenyl-N-[2-(trifluoromethyl)phenyl]piperidine-1-carboxamide] | 38.6 nM | 75 nM | –
Nc1c(Oc2ccc(F)cc2)ncn(CC2(O)CCN(C(=O)[C@@H]3CCN(C(=O)c4cncc(Br)c4)C[C@H]3c3ccccc3)CC2)c1=O [Example 33, 5-amino-3-({1-[(3R,4R)-1-(5-bromopyridine-3-carbonyl)-3-phenylpiperidine-4-carbonyl]-4-hydroxypiperidin-4-yl}methyl)-6-(4-fluorophenoxy)pyrimidin-4(3)-one] | 7.77 nM | 2.55 nM | –
Nc1c(Oc2ccc(F)cc2)ncn(CC2(O)CCN(C(=O)[C@@H]3CCN(C4(c5cccc(Cl)c5)COC4)C[C@H]3c3ccccc3)CC2)c1=O [Example 171] | 42.8 nM | 31.4 nM | –
Nc1c(Oc2ccc(F)cc2)ncn(CC2(O)CCN(C(=O)[C@@H]3CCN(C(=O)Nc4ccccc4F)C[C@H]3c3ccccc3)CC2)c1=O [Example 89] | 20 nM | 26 nM | –
Nc1c(Oc2ccc(F)cc2)ncn(CC2(O)CCN(C(=O)[C@@H]3CCN(C(=O)c4sc(I)cc4F)C[C@H]3c3ccccc3)CC2)c1=O [Example 39, 5-amino-3-({1-[(3R,4R)-1-(3-fluoro-5-iodothiophene-2-carbonyl)-3-phenylpiperidine-4-carbonyl]-4-hydroxypiperidin-4-yl}methyl)-6-(4-fluorophenoxy)pyrimidin-4(3H)-one] | 8.2 nM | 13 nM | –
Cn1c(C(=O)N2CC[C@@H](C(=O)N3CCC(O)(Cn4cnc(Oc5ccc(F)cc5)c(N)c4=O)CC3)[C@H](c3ccccc3)C2)cc2ccccc21 [Example 37, 5-amino-6-(4-fluorophenoxy)-3-({4-hydroxy-1-[(3R,4R)-1-(1-methyl-1H-indole-2-carbonyl)-3-phenylpiperidine-4-carbonyl]piperidin-4-yl}methyl)pyrimidin-4(3H)-one] | 13.6 nM | 6.66 nM | –
Cc1ccc(-c2nc(C)c(C(=O)N3CC[C@@H](C(=O)N4CC[C@](O)(Cn5cnc(Oc6ccccc6)c(N)c5=O)C(F)(F)C4)[C@H](c4ccccc4)C3)s2)cn1 [Example 119] | 1.53 nM | 4.3 nM | –
COc1cc(Oc2ncn(C[C@@]3(O)CCN(C(=O)[C@@H]4CCN(Cc5cncc(C)n5)C[C@H]4c4ccccc4)CC3(F)F)c(=O)c2N)ccc1F [Example 218, 5-amino-3-[[(4S)-3,3-difluoro-4-hydroxy-1-[(3R,4R)-1-[(6-methylpyrazin-2-yl)methyl]-3-phenyl-piperidine-4-carbonyl]-4-piperidyl]methyl]-6-(4-fluoro-3-methoxy-phenoxy)pyrimidin-4-one] | 30.1 nM | 11.5 nM | –
COc1cc(Oc2ncn(C[C@@]3(O)CCN(C(=O)[C@@H]4CCN(Cc5cnc(C)cn5)C[C@H]4c4ccccc4)CC3(F)F)c(=O)c2N)ccc1Cl [Example 183, 5-amino-6-(4-chloro-3-methoxy-phenoxy)-3-[[(4S)-3,3-difluoro-4-hydroxy-1-[(3R,4R)-1-[(5-methylpyrazin-2-yl)methyl]-3-phenyl-piperidine-4-carbonyl]-4-piperidyl]methyl]pyrimidin-4-one] | 37 nM | 9.5 nM | –
Cc1nc(C2CCCNC2)sc1C(=O)N1CC[C@@H](C(=O)N2CCC(O)(Cn3cnc(Oc4ccc(F)cc4)c(N)c3=O)CC2)[C@H](c2ccccc2)C1 (stereo partly drawn) [Example 172, 5-amino-6-(4-fluorophenoxy)-3-[[4-hydroxy-1-[(3R,4R)-1-[4-methyl-2-(3-piperidyl)thiazole-5-carbonyl]-3-phenyl-piperidine-4-carbonyl]-4-piperidyl]methyl]pyrimidin-4-one] | 7.64 nM | 385 nM | –
Cc1nc(Br)sc1C(=O)N1CC[C@@H](C(=O)N2CCC(O)(Cn3cnc(Oc4cccc(C(F)(F)F)c4)c(N)c3=O)CC2)[C@H](c2ccccc2)C1 [Example 100, 5-amino-3-[[1-[(3R,4R)-1-(2-bromo-4-methyl-thiazole-5-carbonyl)-3-phenyl-piperidine-4-carbonyl]-4-hydroxy-4-piperidyl]methyl]-6-[3-(trifluoromethyl)phenoxy]pyrimidin-4-one] | 24 nM | 47.6 nM | –
Cn1c(C(=O)N2CC[C@@H](C(=O)N3CCC(O)(Cn4cnc(Oc5ccc(F)cc5)c(N)c4=O)CC3)[C@H](c3ccccc3)C2)ccc1-c1ccccc1 [Example 38] | 14 nM | 11 nM | –
Nc1c(Oc2ccc(F)cc2)ncn(CC2(O)CCN(C(=O)[C@@H]3CCN(C4(c5cccc(C(F)(F)F)c5)COC4)C[C@H]3c3ccccc3)CC2)c1=O [Example 152, 5-amino-6-(4-fluorophenoxy)-3-[[4-hydroxy-1-[(3R,4R)-3-phenyl-1-[3-[3-(trifluoromethyl)phenyl]oxetan-3-yl]piperidine-4-carbonyl]-4-piperidyl]methyl]pyrimidin-4-one] | 82 nM | 202 nM | –
Cc1nccc(CN2CC[C@@H](C(=O)N3CC[C@](O)(Cn4cnc(Oc5ccc(F)cc5)c(N)c4=O)C(F)(F)C3)[C@H](c3ccccc3)C2)n1 [Example 13, 5-amino-3-{[(4S)-3,3-difluoro-4-hydroxy-1-{(3R,4R)-1-[(2-methylpyrimidin-4-yl)methyl]-3-phenylpiperidine-4-carbonyl]piperidin-4-yl]methyl)-6-(4-fluorophenoxy)pyrimidin-4(31)-one] | 23.3 nM | 10.6 nM | –
